Source: PubChem BioAssay AID242 (DTP/NCI, 2004)
Several values for one entry are separate records, joined by “and”; a condition that tells them apart may be missing. Identical values can stand only once. Inconclusive results and toxic doses are left out. How the source made its calls: active means survival T/C of 150% or more; inactive means T/C below 125% in these data.

System: BDF1 mice, Lymphoma 8 ip, survival T/C
Assay: NCI In Vivo Anticancer Drug Screen. Data for tumor model Lymphoma 8 (intraperitoneal) in B6D2F1 (BDF1) mice
Details: higher = longer survival
Procedure: The antitumor activity of compounds was measured in mice bearing transplantable tumors. Survival or tumor size were measured and the results are expressed as the measurement made in the treated group (T) divided by the measurement made in the vehicle treated control group (C). The tumor model used in this assay is Lymphoma 8 (intraperitoneal) in B6D2F1 (BDF1) mice

[1] = endpoint: survival time, mean or median, dose: 5.0 mg/kg/injection, schedule: Q01DX010 (ip), vehicle: saline
[2] = endpoint: survival time, mean or median, dose: 10.0 mg/kg/injection, schedule: Q01DX010 (ip), vehicle: saline
[3] = endpoint: survival time, mean or median, dose: 20.0 mg/kg/injection, schedule: Q01DX010 (ip), vehicle: saline
[4] = endpoint: survival time, mean or median, dose: 40.0 mg/kg/injection, schedule: Q01DX010 (ip), vehicle: saline
[5] = endpoint: survival time, mean or median, dose: 25.0 mg/kg/injection, schedule: Q01DX015 (ip), vehicle: carboxymethylcellulose (CMC)
[6] = endpoint: survival time, mean or median, dose: 100.0 mg/kg/injection, schedule: Q01DX015 (ip), vehicle: carboxymethylcellulose (CMC)
[7] = endpoint: survival time, mean or median, dose: 25.0 mg/kg/injection, schedule: Q01DX010 (ip), vehicle: saline
[8] = endpoint: survival time, mean or median, dose: 0.5 mg/kg/injection, schedule: Q01DX010 (ip), vehicle: saline
[9] = endpoint: survival time, mean or median, dose: 1.0 mg/kg/injection, schedule: Q01DX010 (ip), vehicle: saline
[10] = endpoint: survival time, mean or median, dose: 4.0 mg/kg/injection, schedule: Q01DX010 (ip), vehicle: saline
[11] = endpoint: survival time, mean or median, dose: 50.0 mg/kg/injection, schedule: Q01DX010 (ip), vehicle: saline
[12] = endpoint: survival time, mean or median, dose: 100.0 mg/kg/injection, schedule: Q01DX010 (ip), vehicle: saline
[13] = endpoint: survival time, mean or median, dose: 50.0 mg/kg/injection, schedule: Q01DX015 (ip), vehicle: carboxymethylcellulose (CMC)

Measured: T/C

C[C@@H]1C[C@@H]([C@H](O)CC2CC(=O)NC(=O)C2)C(=O)[C@@H](C)C1
inactive: [1] 115 % of control | [2] 105 % of control | [3] 115 % of control | [4] 120 % of control

CCCSc1ncnc2nc[nH]c12
inactive: endpoint: survival time, mean or median, dose: 31.3 mg/kg/injection, schedule: Q01DX010 (ip), vehicle: saline 100 % of control and 113 % of control | endpoint: survival time, mean or median, dose: 62.5 mg/kg/injection, schedule: Q01DX010 (ip), vehicle: saline 95 % of control and 100 % of control | endpoint: survival time, mean or median, dose: 125.0 mg/kg/injection, schedule: Q01DX010 (ip), vehicle: saline 95 % of control and 104 % of control | endpoint: survival time, mean or median, dose: 250.0 mg/kg/injection, schedule: Q01DX010 (ip), vehicle: saline 86 % of control

O=c1[nH]c(=O)n(C2CC(O)C(CO)O2)cc1F (stereo unspecified)
inactive: [2] 103 % of control | [3] 100 % of control | [4] 114 % of control | endpoint: survival time, mean or median, dose: 80.0 mg/kg/injection, schedule: Q01DX010 (ip), vehicle: saline 96 % of control

Clc1ncnc2nc[nH]c12
inactive: endpoint: survival time, mean or median, dose: 7.5 mg/kg/injection, schedule: Q01DX010 (ip), vehicle: saline 100 % of control | endpoint: survival time, mean or median, dose: 15.0 mg/kg/injection, schedule: Q01DX010 (ip), vehicle: saline 100 % of control | endpoint: survival time, mean or median, dose: 30.0 mg/kg/injection, schedule: Q01DX010 (ip), vehicle: saline 110 % of control | endpoint: survival time, mean or median, dose: 60.0 mg/kg/injection, schedule: Q01DX010 (ip), vehicle: saline 100 % of control

Nc1nc(SCc2ccccn2)c2[nH]cnc2n1
inactive: endpoint: survival time, mean or median, dose: 12.5 mg/kg/injection, schedule: Q01DX015 (ip), vehicle: carboxymethylcellulose (CMC) 98 % of control | [5] 96 % of control | [6] 104 % of control

C[C@H]1C(=O)O[C@@H]2CCN3CC=C(COC(=O)[C@](C)(O)[C@@]1(C)O)[C@H]23
inactive: endpoint: survival time, mean or median, dose: 3.13 mg/kg/injection, schedule: Q01DX010 (ip), vehicle: saline 116 % of control | endpoint: survival time, mean or median, dose: 6.25 mg/kg/injection, schedule: Q01DX010 (ip), vehicle: saline 100 % of control | endpoint: survival time, mean or median, dose: 12.5 mg/kg/injection, schedule: Q01DX010 (ip), vehicle: saline 104 % of control | [7] 104 % of control

CN(Cc1cnc2nc(N)nc(N)c2n1)c1ccc(C(=O)N[C@@H](CCC(=O)O)C(=O)O)cc1
inactive: endpoint: median survival time, dose: 1.0 mg/kg/injection, schedule: Q01DX009 (ip), vehicle: sodium bicarbonate 118 % of control | endpoint: median survival time, dose: 2.0 mg/kg/injection, schedule: Q01DX009 (ip), vehicle: sodium bicarbonate 93 % of control

CCCCOP(=S)(N1CC1)N1CC1
inactive: [8] 100 % of control | [9] 103 % of control | endpoint: survival time, mean or median, dose: 2.0 mg/kg/injection, schedule: Q01DX010 (ip), vehicle: saline 106 % of control | [10] 103 % of control

NC(Cc1c[nH]c2ccc(N(CCCl)CCCl)cc12)C(=O)O (stereo unspecified)
inactive: [8] 92 % of control | [9] 103 % of control | [10] 103 % of control

Cc1c(O)ccc(=O)n1O
inactive: endpoint: survival time, mean or median, dose: 49.0 mg/kg/injection, schedule: Q01DX015 (ip), vehicle: other 100 % of control | endpoint: survival time, mean or median, dose: 73.0 mg/kg/injection, schedule: Q01DX015 (ip), vehicle: other 97 % of control | endpoint: survival time, mean or median, dose: 110.0 mg/kg/injection, schedule: Q01DX015 (ip), vehicle: other 105 % of control

C[C@@H]1C[C@H]2CC[C@H](O2)[C@H](C)C(=O)O[C@@H](C)C[C@@H]2CC[C@@H](O2)[C@@H](C)C(=O)O[C@H](C)C[C@H]2CC[C@H](O2)[C@H](C)C(=O)O[C@@H](C)C[C@@H]2CC[C@@H](O2)[C@@H](C)C(=O)O1
inactive: endpoint: survival time, mean or median, dose: 45.0 mg/kg/injection, schedule: Q01DX015 (ip), vehicle: other 102 % of control | endpoint: survival time, mean or median, dose: 90.0 mg/kg/injection, schedule: Q01DX015 (ip), vehicle: other 94 % of control | endpoint: survival time, mean or median, dose: 360.0 mg/kg/injection, schedule: Q01DX015 (ip), vehicle: other 88 % of control

Cc1cc(N(CCCl)CCCl)ccc1N=Nc1ccccc1C(=O)O
inactive: [1] 91 % of control and 107 % of control | [2] 108 % of control and 110 % of control | [3] 108 % of control

CC(=O)Nc1ccc2nc3ccc(NC(C)=O)cc3[n+](-c3ccccc3)c2c1
inactive: [7] 107 % of control | [11] 89 % of control | [12] 92 % of control

COc1cc(-c2ccc(Nc3ccccc3C(=O)O)c(OC)c2)ccc1Nc1ccccc1C(=O)O
inactive: [5] 101 % of control | [13] 89 % of control | [6] 96 % of control | endpoint: survival time, mean or median, dose: 200.0 mg/kg/injection, schedule: Q01DX015 (ip), vehicle: carboxymethylcellulose (CMC) 90 % of control

COc1cc([C@@H]2c3cc4c(cc3[C@H](O)[C@H]3COC(=O)[C@@H]23)OCO4)cc(OC)c1OC
inactive: endpoint: survival time, mean or median, dose: 10.0 mg/kg/injection, schedule: Q01DX015 (ip), vehicle: carboxymethylcellulose (CMC) 98 % of control | endpoint: survival time, mean or median, dose: 20.0 mg/kg/injection, schedule: Q01DX015 (ip), vehicle: carboxymethylcellulose (CMC) 119 % of control

CC(=O)OCC1OC(n2cnc3c(=S)nc[nH]c32)C(OC(C)=O)C1OC(C)=O (stereo unspecified)
inactive: [5] 101 % of control | [13] 109 % of control | [6] 104 % of control

COc1ccc(C2NCCS2)cc1 (stereo unspecified)
inactive: [11] 103 % of control | [12] 100 % of control | endpoint: survival time, mean or median, dose: 200.0 mg/kg/injection, schedule: Q01DX010 (ip), vehicle: saline 106 % of control | endpoint: survival time, mean or median, dose: 400.0 mg/kg/injection, schedule: Q01DX010 (ip), vehicle: saline 100 % of control

COc1ccc(CSc2ncnc3nc[nH]c23)cc1
inactive: endpoint: survival time, mean or median, dose: 62.5 mg/kg/injection, schedule: Q01DX015 (ip), vehicle: carboxymethylcellulose (CMC) 95 % of control | endpoint: survival time, mean or median, dose: 125.0 mg/kg/injection, schedule: Q01DX015 (ip), vehicle: carboxymethylcellulose (CMC) 92 % of control | endpoint: survival time, mean or median, dose: 250.0 mg/kg/injection, schedule: Q01DX015 (ip), vehicle: carboxymethylcellulose (CMC) 87 % of control

NC(=O)c1cn(C2OC(CO)C(O)C2O)c2ncnc(N)c12 (stereo unspecified)
inactive: endpoint: survival time, mean or median, dose: 0.5 mg/kg/injection, schedule: Q01DX015 (ip), vehicle: carboxymethylcellulose (CMC) 106 % of control | endpoint: survival time, mean or median, dose: 1.0 mg/kg/injection, schedule: Q01DX015 (ip), vehicle: carboxymethylcellulose (CMC) 116 % of control | endpoint: survival time, mean or median, dose: 2.0 mg/kg/injection, schedule: Q01DX015 (ip), vehicle: carboxymethylcellulose (CMC) 94 % of control

CS(=O)(=O)OCCCl
inactive: endpoint: survival time, mean or median, dose: 9.4 mg/kg/injection, schedule: Q01DX010 (ip), vehicle: saline 107 % of control | endpoint: survival time, mean or median, dose: 18.8 mg/kg/injection, schedule: Q01DX010 (ip), vehicle: saline 91 % of control and 96 % of control | endpoint: survival time, mean or median, dose: 37.5 mg/kg/injection, schedule: Q01DX010 (ip), vehicle: saline 91 % of control and 100 % of control | endpoint: survival time, mean or median, dose: 75.0 mg/kg/injection, schedule: Q01DX010 (ip), vehicle: saline 91 % of control and 96 % of control

N#[N+]c1cnc([O-])[nH]c1=O
inactive: endpoint: survival time, mean or median, dose: 1.25 mg/kg/injection, schedule: Q01DX010 (ip), vehicle: saline 107 % of control | endpoint: survival time, mean or median, dose: 2.5 mg/kg/injection, schedule: Q01DX010 (ip), vehicle: saline 103 % of control | [1] 121 % of control | [2] 121 % of control
